Data reported in US4446136A, “Agents for improvement of peripheral blood flow” (Yamanouchi Pharmaceutical Co., Ltd., priority 1980, dated 1984).

Columns and labels:
[1] = tested on: blood flow in microvessels; experiment: Effects on microcirculation in vivo in mesenterium of rabbit with lowered blood pressure (Experiment 3); conditions: other substances, anesthetized rabbit, low arterial blood pressure
HeLa S3 = experiment: Toxicity of gelatin to cells in culture; format: cell-based
Rat = experiment: Acute toxicity (LD50) in rat; format: in vivo; parameters: unit not given here; conditions: intravenous, intraperitoneal, subcutaneous
[2] = tested on: EB virus transformed lymphoblastoid cells P3HR-1; experiment: Toxicity of gelatin to cells in culture; format: cell-based
Sheep = experiment: Acute toxicity (LD50 of gelatin) in sheep; format: in vivo; parameters: unit not given here; conditions: intravenous, intraperitoneal, subcutaneous
erythrocytes = experiment: Dose-response of gelatin on filtration and hemolysis of erythrocytes (Experiment 4(i)); format: cell-based
Experimental: (i) Following procedures similar to the Experiment 2 using a concentration of gelatin between 0-2.0 mg/ml, effects of the substance on the filtration ratios of erythrocytes through the membrane filter and the ratio of hemolysis were examined at various concentrations of gelatin.

[3] = tested on: Lung fibroblasts of human embryo; experiment: Toxicity of gelatin to cells in culture; format: cell-based
[4] = Antigenic activity of gelatin; conditions: by itself
[5] = Acute toxicity, overall (Experiment 5); format: in vivo; conditions: summary of Tables 1, 2 and 3

Experimental for human erythrocytes: A mixture of 1 part of human blood and 1 part (v/v) of preservative solution (sodium citrate buffer containing glucose) was washed 4 to 5 times with physiological saline solution and then 2% (by volume) erythrocyte solution was prepared in physiological saline. In the next step, physiological saline solutions containing 0.05% gelatin, 0.1% α1 -acid glycoprotein, 0.1% polyethylene glycol, 0.1% γ-globulin, 0.1% ovomucoid, 0.1% dextran, 0.1% dextran sulfate, 0.1% chondroitin sulfate, or physiological saline alone were mixed with an equal volume of the erythrocyte suspension, and then each mixture was shaken mildly for 30 min at 37° C. Thereafter 1 ml of each mixture was subjected to filtration through a nitrocellulose membrane filter (13 mm in diameter and 5 μm in average size of micropores, made by Sartorius Co.) at 37° C. under a pressure of 80 mmHg/cm^2. The filtrate was immediately subjected to centrifugation for 2 min at 1,500 r.p.m. and from the supernatant, the ratio of hemolysis during filtration was calculated based on absorbance at 420 nm. As to the erythrocytes remaining on the filter, 5 ml of deionized water was added to the erythrocytes on the membrane filter by placing into a test tube, and the resulting hemolysis due to hypotonicis permitted a measurement of absorbance at 420 nm to calculate the ratio of filtered erythrocytes through the membrane.

Row | Substance | erythrocytes hemolysed during filtration (human erythrocytes; human, erythrocytes) | actions on microcirculation as observed for gelatin [1] | Toxicity (50% growth inhibition) (HeLa S3) [µg/mL] | LD50 of gelatin (Rat) | ratio of passage (filtration) of erythrocytes through the filter (human erythrocytes; 0.05% gelatin, 0.1% other substances, 5 μm micropores, 37° C., 80 mmHg/cm^2) | ratio of hemolysis during filtration (in words) (human erythrocytes; 0.05% gelatin, 5 μm micropores, 37° C., vs physiological saline control) | Toxicity (50% growth inhibition) [2] [µg/mL] | LD50 of gelatin (Sheep) | filtration ratio on further increase in concentration (erythrocytes; above 0.5 mg/ml gelatin) | concentration at which filtration ratio of erythrocytes reached plateau (erythrocytes; gelatin 0-2.0 mg/ml) [mg/mL] | Toxicity (50% growth inhibition) [3] [µg/mL] | antigenic activity [4] | acute toxicity (in words) [5]
1 | dextran sulfate [reference compound] | 25-30% | did not exert any actions on microcirculation |  |  |  |  |  |  |  |  |  |  | 
2 | gelatin |  |  | > 100 | > 1,000 | increased remarkably | reduced | > 100 | > 1,000 | did not improve the filtration ratio | 0.5 | > 100 | no antigenic activity | very mild
